From patent US20080269170A1, “Novel 2,4-Dianilinopyrimidine Derivatives, the Preparation Thereof, Their Use as Medicaments, Pharmaceutical Compositions and, in Particular, as IKK Inhibitors” (sanofi-aventis, priority 2005, published 2008)
Where a name gives a salt, the structure may show the parent alone.

SMILES	melting point
NCCCN(C1CCNCC1)S(=O)(=O)c1ccc(Nc2nccc(Nc3ccc(F)cc3)n2)cc1 (as salt: hydrochloride) [Example 92, N-(3-Aminopropyl)-4-({4-[(4-fluorophenyl)-amino]pyrimidin-2-yl}amino)-N-piperidin-4-ylbenzene-sulfonamide hydrochloride]	245 to 247 °C
CNC1CCC(N(C)S(=O)(=O)c2ccc(Nc3nccc(Nc4ccc(F)cc4)n3)cc2)CC1 (stereo not drawn) [Example 121, 4-({4-[(4-Fluorophenyl)amino]pyrimidin-2-yl}amino)-N-methyl-N-[4-cis(methylamino)cyclohexyl]-benzenesulfonamide]	192 °C
Cc1cc(Nc2ccnc(Nc3ccc(S(=O)(=O)N(C)C4CCN(Cc5cccn5C)CC4)cc3)n2)ccc1F [Example 110, 4-({4-[(4-Fluoro-3-methylphenyl)amino]-pyrimidin-2-yl}amino)-N-methyl-N-{1-[(1-methyl-1H-pyrrol-2-yl)methyl]piperidin-4-yl}benzenesulfonamide]	159 to 160 °C
CN1CCC(N(C[C@H]2CCCN2)S(=O)(=O)c2ccc(Nc3nccc(Nc4ccc(F)cc4)n3)cc2)CC1 (as salt: hydrochloride) [Example 124, 4-({4-[(4-Fluorophenyl)amino]pyrimidin-2-yl}amino)-N-(1-methylpiperidin-4-yl)-N-[(2R)-pyrrolidin-2-ylmethyl]benzenesulfonamide]	200 °C
CN(C1CCN(CCCC(F)(F)F)CC1)S(=O)(=O)c1ccc(Nc2nccc(Nc3ccc(F)cc3)n2)cc1 [Example 40, 4-[4-(4-Fluorophenylamino)pyrimidin-2-yl-amino]-N-methyl-N-[1-(4,4,4-trifluorobutyl)piperidin-4-yl]benzenesulfonamide]	166 to 167 °C
CCOP(=O)(CCN1CCC(N(C)S(=O)(=O)c2ccc(Nc3nccc(Nc4ccc(F)c(F)c4)n3)cc2)CC1)OCC	93 to 96 °C
Cc1cc(Nc2ccnc(Nc3ccc(S(=O)(=O)N(CCN)C4CNC4)cc3)n2)ccc1F (as salt: hydrochloride)	205 °C
CN(C1CCN(CC(C)(C)O)CC1)S(=O)(=O)c1ccc(Nc2nccc(Nc3ccc(F)cc3)n2)cc1 [Example 49, 4-[4-(4-Fluorophenylamino)pyrimidin-2-yl-amino]-N-[1-(2-hydroxy-2-methylpropyl)piperidin-4-yl]-N-methylbenzenesulfonamide]	216 to 217 °C
CN1CCC(N(C)S(=O)(=O)c2ccc(Nc3nc(Cl)cc(Nc4ccc(F)cc4)n3)cc2)CC1 [Example 20, 4-[4-Chloro-6-(4-fluorophenylamino)pyrimidin-2-ylamino]-N-methyl-N-(1-methylpiperidin-4-yl)benzenesulfonamide]	140 to 142 °C
O=C(CNS(=O)(=O)c1ccc(Nc2nccc(Nc3ccc(F)cc3)n2)cc1)NC1CCOCC1 [Example 2, 2-{4-[4-(4-Fluorophenylamino)pyrimidin-2-ylamino]benzenesulfonylamino}-N-(tetrahydropyran-4-yl)-acetamide]	253 to 254 °C
CN1CCC(N(C[C@@H]2CCCN2)S(=O)(=O)c2ccc(Nc3nccc(Nc4ccc(F)cc4)n3)cc2)CC1 (as salt: hydrochloride) [Example 123, 4-({4-[(4-Fluorophenyl)amino]pyrimidin-2-yl}amino)-N-(1-methylpiperidin-4-yl)-N-[(2S)-pyrrolidin-2-ylmethyl]benzenesulfonamide]	200 °C
NCCN(C1CNC1)S(=O)(=O)c1ccc(Nc2nccc(Nc3ccc(F)cc3)n2)cc1 (as salt: hydrochloride)	> 220 °C
CN1CCC(N(C)S(=O)(=O)c2ccc(Nc3nccc(Nc4ccc(F)c(F)c4)n3)cc2)CC1 [Example 11, 4-[4-(3,4-Difluorophenylamino)pyrimidin-2-ylamino]-N-methyl-N-(1-methylpiperidin-4-yl)benzene-sulfonamide]	181 to 183 °C
CN(C)CCN(C1CCS(=O)(=O)C1)S(=O)(=O)c1ccc(Nc2nccc(Nc3ccc(F)cc3)n2)cc1 (stereo not drawn) [Example 114, N-[2-(Dimethylamino)ethyl]-N-(1,1-dioxido-tetrahydro-3-thienyl)-4-({4-[(4-fluorophenyl)amino]-pyrimidin-2-yl}amino)benzenesulfonamide]	162 to 165 °C
CN(C1CCN(CCCC(F)(F)F)CC1)S(=O)(=O)c1ccc(Nc2nccc(Nc3ccc(F)c(F)c3)n2)cc1 [Example 108, 4-({4-[(3,4-Difluorophenyl)amino]pyrimidin-2-yl}amino)-N-methyl-N-[1-(4,4,4-trifluorobutyl)-piperidin-4-yl]benzenesulfonamide]	192 °C
CNC1CCC(N(CCN2CCCC2)S(=O)(=O)c2ccc(Nc3nccc(Nc4ccc(F)cc4)n3)cc2)CC1 (stereo not drawn) [Example 147, 4-({4-[(4-Fluorophenyl)amino]pyrimidin-2-yl}amino)-N-(4-trans(methylamino)cyclohexyl)-N-(2-pyr-rolidin-1-ylethyl)benzenesulfonamide]	128 °C
NCCN(C1CCN(Cc2ccccc2)CC1)S(=O)(=O)c1ccc(Nc2nccc(Nc3ccc(F)cc3)n2)cc1 (as salt: hydrochloride)	230 to 232 °C
CN(C1CCN(Cc2ccsc2)CC1)S(=O)(=O)c1ccc(Nc2nccc(Nc3ccc(F)cc3)n2)cc1 [Example 16, 4-[4-(4-Fluorophenylamino)pyrimidin-2-ylamino]-N-methyl-N-(1-thiophen-3-ylmethylpiperidin-4-yl)benzenesulfonamide]	173 to 174 °C
CC(C)CCN1CCC(N(C)S(=O)(=O)c2ccc(Nc3nccc(Nc4ccc(F)cc4)n3)cc2)CC1 [Example 39, 4-[4-(4-Fluorophenylamino)pyrimidin-2-yl-amino]-N-methyl-N-[1-(3-methylbutyl)piperidin-4-yl]-benzenesulfonamide]	184 to 185 °C
CNC1CCC(N(C)S(=O)(=O)c2ccc(Nc3nccc(Nc4ccc(F)cc4)n3)cc2)CC1 (stereo not drawn) [Example 122, 4-({4-[(4-Fluorophenyl)amino]pyrimidin-2-yl}amino)-N-methyl-N-[4-trans(methylamino)cyclohexyl]-benzenesulfonamide]	195 °C
CCOP(=O)(CCN1CCC(N(CCCN)S(=O)(=O)c2ccc(Nc3nccc(Nc4ccc(F)cc4)n3)cc2)CC1)OCC	125 to 130 °C
CC(C)(O)CNCCN(C1CCN(Cc2ccccc2)CC1)S(=O)(=O)c1ccc(Nc2nccc(Nc3ccc(F)cc3)n2)cc1 (as salt: hydrochloride)	200 °C
CN(C1CCN(Cc2ccccc2F)CC1)S(=O)(=O)c1ccc(Nc2nccc(Nc3ccc(F)cc3)n2)cc1 [Example 31, N-[1-(2-Fluorobenzyl)piperidin-4-yl]-4-[4-(4-fluorophenylamino)pyrimidin-2-ylamino]-N-methyl-benzenesulfonamide]	182 to 183 °C
Cc1cc(CN2CCC(N(C)S(=O)(=O)c3ccc(Nc4nccc(Nc5ccc(F)c(F)c5)n4)cc3)CC2)no1 [Example 166, 4-({4-[(3,4-Difluorophenyl)amino]pyrimidin-2-yl}amino)-N-methyl-N-{1-[(5-methylisoxazol-3-yl)methyl]piperidin-4-yl}benzenesulfonamide]	204 to 206 °C
